Read-outs that look alike come from different tables or passages of the source.
Experiments:
Format in all cases: biochemical
Human recombinant LOXL3 = molecular target: T1, Human recombinant LOXL3 (Homo sapiens, UniProt P58215); experiment: LOXL3 inhibition, Amplex Red oxidation assay
T1 sequence (P58215 26-753): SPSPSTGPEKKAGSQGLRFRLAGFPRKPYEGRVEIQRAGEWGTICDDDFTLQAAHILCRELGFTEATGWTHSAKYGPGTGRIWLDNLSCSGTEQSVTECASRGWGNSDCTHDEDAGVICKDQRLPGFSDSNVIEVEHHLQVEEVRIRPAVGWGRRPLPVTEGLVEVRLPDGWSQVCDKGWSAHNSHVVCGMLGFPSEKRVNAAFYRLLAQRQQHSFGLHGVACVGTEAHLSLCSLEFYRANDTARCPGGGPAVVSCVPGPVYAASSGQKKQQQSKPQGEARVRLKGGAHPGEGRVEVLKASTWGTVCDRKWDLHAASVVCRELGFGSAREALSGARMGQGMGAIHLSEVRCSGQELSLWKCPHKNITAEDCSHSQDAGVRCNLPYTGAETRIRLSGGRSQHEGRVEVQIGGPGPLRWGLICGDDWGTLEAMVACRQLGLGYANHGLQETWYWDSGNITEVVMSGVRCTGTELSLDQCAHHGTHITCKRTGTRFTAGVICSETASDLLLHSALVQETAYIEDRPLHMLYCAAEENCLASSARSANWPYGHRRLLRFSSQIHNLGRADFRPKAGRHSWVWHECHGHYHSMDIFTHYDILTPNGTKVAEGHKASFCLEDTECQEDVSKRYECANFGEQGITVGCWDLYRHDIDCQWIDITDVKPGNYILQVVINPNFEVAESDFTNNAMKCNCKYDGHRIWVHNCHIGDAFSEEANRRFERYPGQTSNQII
Experimental: (§1) LOX and LOXL protein family members can be acquired as recombinant active proteins from commercial sources, or extracted from animal tissues like bovine aorta, tendons, pig skin; or prepared from cell cultures. […] The assay was developed using either 384 or 96 well format. Briefly, in a standard black, clear bottom 384 well plate assay 25 μL of a dilution of any of the isoenzymes and orthologues in 1.2 M urea, 50 mM sodium borate buffer (pH 8.2) were added into each well in the presence of 1 μM mofegiline and 0.5 mM pargyline (to inhibit SSAO and MAO-B and MAO-A, respectively; not necessary if the enzyme is from a recombinant or purified form). Test compounds were dissolved in DMSO and tested in a Concentration Response Curve (CRC) with 11 data points, typically in the micromolar or nanomolar range after incubation with the enzyme for 30 min at 37° C. 25 μL of a reaction mixture containing twice the KM concentration of putrescine (Sigma Aldrich, e.g. 20 mM for LOX and LOXL1 or 10 mM for LOXL2 and 4 mM for LOXL3 and LOXL4), 120 μM Amplex Red (Sigma Aldrich) and 1.5 U/mL horseradish peroxidase (Sigma Aldrich) prepared in 1.2 M urea, 50 mM sodium borate buffer (pH 8.2) were then added to the corresponding wells. The above volumes were doubled in the case of 96 wells plate. The fluorescence (RFU) was read every 2.5 min for 30 min at […] 37° C., excitation 565 nm and emission 590 (Optima; BMG labtech). The slope of the kinetics for each well was calculated using MARS data analysis software (BMG labtech) and this value was used to deduce the IC50 value (Dotmatics). The ability of the inventive compounds to inhibit the amine oxidase activity of LOX and other family members is shown in Table 4.

Human recombinant LOXL1 = molecular target: T2, Human recombinant LOXL1 (Homo sapiens, UniProt Q08397); experiment: LOXL1 inhibition, Amplex Red oxidation assay
T2 sequence (Q08397 96-574): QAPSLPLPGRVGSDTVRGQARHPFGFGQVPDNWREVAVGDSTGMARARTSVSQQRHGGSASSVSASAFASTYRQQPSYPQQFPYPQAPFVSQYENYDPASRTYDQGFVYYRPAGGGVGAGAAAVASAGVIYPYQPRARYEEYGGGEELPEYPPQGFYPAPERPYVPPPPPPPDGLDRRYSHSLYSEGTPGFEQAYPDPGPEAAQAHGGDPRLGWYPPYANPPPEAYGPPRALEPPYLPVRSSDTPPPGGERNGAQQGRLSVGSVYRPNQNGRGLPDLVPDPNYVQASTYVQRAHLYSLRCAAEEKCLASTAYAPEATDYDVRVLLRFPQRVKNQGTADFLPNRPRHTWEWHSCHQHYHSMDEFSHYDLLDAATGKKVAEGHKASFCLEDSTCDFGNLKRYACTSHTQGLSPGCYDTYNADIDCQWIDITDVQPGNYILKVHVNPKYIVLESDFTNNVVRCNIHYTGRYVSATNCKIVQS
Experimental: as §1

recombinant human MAO-B = molecular target: T3, recombinant human MAO-B (Homo sapiens, UniProt P27338); experiment: MAO-B inhibition; settings: benzylamine 100 μM
T3 construct: purchased Sigma Aldrich
T3 sequence (P27338 1-520): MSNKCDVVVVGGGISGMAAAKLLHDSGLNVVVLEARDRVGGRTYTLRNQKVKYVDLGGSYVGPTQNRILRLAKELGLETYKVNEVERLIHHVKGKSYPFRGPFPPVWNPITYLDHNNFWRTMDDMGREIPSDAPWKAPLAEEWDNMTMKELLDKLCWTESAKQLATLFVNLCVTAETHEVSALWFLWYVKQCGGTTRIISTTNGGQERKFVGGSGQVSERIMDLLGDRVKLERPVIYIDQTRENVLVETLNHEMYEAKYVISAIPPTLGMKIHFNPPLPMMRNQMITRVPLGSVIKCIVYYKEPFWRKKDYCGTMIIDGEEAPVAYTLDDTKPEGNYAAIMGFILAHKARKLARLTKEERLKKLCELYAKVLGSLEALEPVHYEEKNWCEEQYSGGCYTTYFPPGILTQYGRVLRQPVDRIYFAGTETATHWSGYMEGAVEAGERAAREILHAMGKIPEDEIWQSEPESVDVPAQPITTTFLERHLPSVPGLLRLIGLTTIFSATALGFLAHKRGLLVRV
Experimental: The specificity of the compounds of this invention was tested by determining their ability to inhibit MAO-B activity in vitro using recombinant human MAO-B (0.02 mg/mL; Sigma Aldrich). The assay was performed in a similar way as for human SSAO/VAP-1 (Example 8) except, the substrate benzylamine was used at 100 μM.

[1] = incubation with enzyme 30 min at 37° C, read-out: Human recombinant LOXL3 Activity IC50
[2] = incubation with enzyme 30 min at 37° C, read-out: Human recombinant LOXL1 Activity IC50

| SMILES | IC50 (Human recombinant LOXL3; [1]) | IC50 (Human recombinant LOXL1; [2]) | IC50 (recombinant human MAO-B) | IC50 (Human recombinant LOXL3) | IC50 (Human recombinant LOXL1) |
| --- | --- | --- | --- | --- | --- |
| N#CCCN [BAPN, β-aminopropionitrile, reference compound] | 0.5 µM | 2.5 µM | > 30 µM | – | – |
| NC/C=C(\F)C(F)(F)S(=O)(=O)c1ccccc1 [Compound 1, (Z)-3,4,4-trifluoro-4-(phenylsulfonyl)but-2-en-1-amine] | – | – | – | 1.5 µM | 3.4 µM |
| NC/C=C(\F)C(F)(F)S(=O)(=O)c1cccc2cccnc12 [Compound 2, (Z)-3,4,4-trifluoro-4-(quinolin-8-ylsulfonyl)but-2-en-1-amine] | 16.4 µM | 13.4 µM | – | – | – |
| CNc1ccccc1S(=O)(=O)C(F)(F)/C(F)=C/CN [Compound 4, (Z)-2-((4-amino-1,1,2-trifluorobut-2-en-yl)sulfony1)-N-methylaniline] | 7.4 µM | 4.8 µM | ≥ 30 µM | – | – |
| Cc1ccccc1S(=O)(=O)C(F)(F)/C(F)=C/CN [Compound 5, (Z)-3,4,4-trifluoro-4-(o-tolylsulfonyl)but-2-en-1-amine] | – | – | > 30 µM | – | – |
| Cc1ccc(S(=O)(=O)C(F)(F)/C(F)=C/CN)cc1 [Compound 6, (Z)-3,4,4-trifluoro-4-tosylbut-2-en-1-amine] | 1.8 µM | 5.1 µM | > 30 µM | – | – |
| NC/C=C(\F)C(F)(F)S(=O)(=O)Cc1ccccc1 [Compound 8, (Z)-4-(benzylsulfony1)-3,4,4-trifluorobut-2-en-1-amine] | 1 µM | 3.1 µM | > 30 µM | – | – |
| NC/C=C(\F)C(F)(F)[S+]([O-])c1ccccc1 (stereo not drawn) [Compound 9, (Z)-3,4,4-trifluoro-4-(phenylsulfinyl)but-2-en-1-amine] | 5.2 µM | 8.7 µM | – | – | – |
| CS(=O)(=O)c1ccc(COc2ccccc2S(=O)(=O)C(F)(F)/C(F)=C/CN)cc1 [Compound 10, (Z)-3,4,4-trifluoro-4-((2-((4-(methylsulfonyl)benzyl)oxy)phenyl)sulfonyl) but-2-en-1-amine] | 1.5 µM | 2 µM | > 30 µM | – | – |
| COc1cccc(S(=O)(=O)C(F)(F)/C(F)=C/CN)c1 [Compound 12, (Z)-3,4,4-trifluoro-4-((3-methoxyphenyl)sulfonyl)but-2-en-1-amine] | 2.7 µM | 7.4 µM | – | – | – |
| NC/C=C(\F)C(F)(F)S(=O)(=O)c1cccs1 [Compound 14, (Z)-3,4,4-trifluoro-4-(thiophen-2-ylsulfonyl)but-2-en-1-amine] | 1.2 µM | 7 µM | – | – | – |
| CS(=O)(=O)c1cccc(CS(=O)(=O)C(F)(F)/C(F)=C/CN)c1 [Compound 17, (Z)-3,4,4-trifluoro-4-((3-(methylsulfonyl)benzyl)sulfonyl)but-2-en-1-amine] | 0.8 µM | 4.6 µM | – | – | – |
| NC/C=C(\F)C(F)(F)S(=O)(=O)C1CCCC1 [Compound 19, (Z)-4-(cyclopentylsulfony1)-3,4,4-trifluorobut-2-en-1-amine] | 1.3 µM | 4.3 µM | – | – | – |
